Like-named read-outs stand apart in the source and are kept apart here.
What was measured:
EGFR Del19/T790M/C797S = EGFR Del19/T790M/C797S (Homo sapiens, UniProt P00533, C797S/DEL746-750/T790M); test: Biochemical EGFR kinase inhibition assay (Lance Ultra TR-FRET), triple mutant del19/T790M/C797S
Outline: (§1)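 In this biochemical assay, phosphorylation after a one-hour room-temperature reaction was detected with europium-labelled anti-phosphopeptide antibody at 2 nM final concentration.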

EGFR L858R/T790M/C797S = EGFR L858R/T790M/C797S (Homo sapiens, UniProt P00533, C797S/L858R/T790M); test: Biochemical EGFR kinase inhibition assay (Lance Ultra TR-FRET), triple mutant L858R/T790M/C797S
Outline: as §1

EGFR Del19/C797S = EGFR Del19/C797S (Homo sapiens, UniProt P00533, C797S/DEL746-750); test: Biochemical EGFR kinase inhibition assay (Lance Ultra TR-FRET), double mutant del19/C797S
Outline: as §1

EGFR L858R/C797S = EGFR L858R/C797S (Homo sapiens, UniProt P00533, C797S/L858R); test: Biochemical EGFR kinase inhibition assay (Lance Ultra TR-FRET), double mutant L858R/C797S
Outline: as §1

EGFR wildtype (WT) = EGFR wildtype (WT) (Homo sapiens, UniProt P00533); test: Biochemical EGFR kinase inhibition assay (Lance Ultra TR-FRET), wildtype
Outline: as §1

[1] = ATP at Km, read-out: IC50 Del19/T790M/C797S (nM), Km ATP
[2] = IC50 Del19/T790M/C797S (nM), 100 μM ATP
[3] = ATP at Km, read-out: IC50 L858R/T790M/C797S (nM), Km ATP
[4] = IC50 L858R/T790M/C797S (nM), 100 μM ATP
[5] = ATP at Km, read-out: IC50 Del19/C797S (nM), Km ATP
[6] = IC50 Del19/C797S (nM), 100 μM ATP
[7] = ATP at Km, read-out: IC50 L858R/C797S (nM), Km ATP
[8] = IC50 L858R/C797S (nM), 100 μM ATP
[9] = ATP at Km, read-out: IC50 WT (nM), Km ATP
[10] = Km ATP, read-out: IC50 Del19/T790M/C797S (nM) Km ATP
[11] = Km ATP, read-out: IC50 L858R/T790M/C797S (nM) Km ATP
[12] = Km ATP, read-out: IC50 Del19/C797S (nM) Km ATP
[13] = Km ATP, read-out: IC50 L858R/C797S (nM) Km ATP
[14] = Km ATP, read-out: IC50 WT (nM) Km ATP
[15] = Km ATP, read-out: IC50 Del19/T790M/C797S (nM), Km ATP
[16] = Km ATP, read-out: IC50 L858R/T790M/C797S (nM), Km ATP

Sequence of EGFR Del19/C797S (P00533 with tags, fused parts or gaps DEL746-750/C797S): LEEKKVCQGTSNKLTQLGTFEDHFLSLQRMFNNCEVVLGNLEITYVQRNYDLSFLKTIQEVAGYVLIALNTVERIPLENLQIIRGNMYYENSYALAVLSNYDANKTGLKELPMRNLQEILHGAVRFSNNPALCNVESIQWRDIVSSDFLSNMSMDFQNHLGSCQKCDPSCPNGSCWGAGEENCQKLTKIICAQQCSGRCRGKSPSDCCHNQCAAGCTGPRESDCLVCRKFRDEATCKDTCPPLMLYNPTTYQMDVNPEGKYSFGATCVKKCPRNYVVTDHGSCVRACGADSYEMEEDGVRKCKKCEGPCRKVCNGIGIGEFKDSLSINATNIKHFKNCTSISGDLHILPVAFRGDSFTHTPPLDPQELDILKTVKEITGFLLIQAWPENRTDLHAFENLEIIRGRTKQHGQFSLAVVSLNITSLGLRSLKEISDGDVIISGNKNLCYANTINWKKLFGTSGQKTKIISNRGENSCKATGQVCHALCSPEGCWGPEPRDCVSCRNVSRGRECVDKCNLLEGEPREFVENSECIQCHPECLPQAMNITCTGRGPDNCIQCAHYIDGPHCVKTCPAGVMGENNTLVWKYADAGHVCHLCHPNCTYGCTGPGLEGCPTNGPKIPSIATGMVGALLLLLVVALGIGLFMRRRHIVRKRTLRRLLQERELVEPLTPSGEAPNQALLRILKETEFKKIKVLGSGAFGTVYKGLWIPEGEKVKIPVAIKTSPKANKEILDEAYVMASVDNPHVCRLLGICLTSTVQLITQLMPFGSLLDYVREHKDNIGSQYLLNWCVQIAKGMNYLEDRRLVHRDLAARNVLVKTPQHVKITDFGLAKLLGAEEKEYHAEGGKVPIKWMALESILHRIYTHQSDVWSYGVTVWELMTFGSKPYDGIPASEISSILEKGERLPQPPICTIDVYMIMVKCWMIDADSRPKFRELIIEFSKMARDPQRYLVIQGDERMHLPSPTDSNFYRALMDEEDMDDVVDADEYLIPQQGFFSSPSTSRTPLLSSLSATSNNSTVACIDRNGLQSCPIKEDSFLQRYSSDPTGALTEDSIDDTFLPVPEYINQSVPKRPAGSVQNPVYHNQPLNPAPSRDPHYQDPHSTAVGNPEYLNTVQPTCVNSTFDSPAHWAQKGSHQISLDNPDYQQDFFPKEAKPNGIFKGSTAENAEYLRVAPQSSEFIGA
Sequence of EGFR L858R/T790M/C797S (P00533 25-1210 T790M/C797S/L858R): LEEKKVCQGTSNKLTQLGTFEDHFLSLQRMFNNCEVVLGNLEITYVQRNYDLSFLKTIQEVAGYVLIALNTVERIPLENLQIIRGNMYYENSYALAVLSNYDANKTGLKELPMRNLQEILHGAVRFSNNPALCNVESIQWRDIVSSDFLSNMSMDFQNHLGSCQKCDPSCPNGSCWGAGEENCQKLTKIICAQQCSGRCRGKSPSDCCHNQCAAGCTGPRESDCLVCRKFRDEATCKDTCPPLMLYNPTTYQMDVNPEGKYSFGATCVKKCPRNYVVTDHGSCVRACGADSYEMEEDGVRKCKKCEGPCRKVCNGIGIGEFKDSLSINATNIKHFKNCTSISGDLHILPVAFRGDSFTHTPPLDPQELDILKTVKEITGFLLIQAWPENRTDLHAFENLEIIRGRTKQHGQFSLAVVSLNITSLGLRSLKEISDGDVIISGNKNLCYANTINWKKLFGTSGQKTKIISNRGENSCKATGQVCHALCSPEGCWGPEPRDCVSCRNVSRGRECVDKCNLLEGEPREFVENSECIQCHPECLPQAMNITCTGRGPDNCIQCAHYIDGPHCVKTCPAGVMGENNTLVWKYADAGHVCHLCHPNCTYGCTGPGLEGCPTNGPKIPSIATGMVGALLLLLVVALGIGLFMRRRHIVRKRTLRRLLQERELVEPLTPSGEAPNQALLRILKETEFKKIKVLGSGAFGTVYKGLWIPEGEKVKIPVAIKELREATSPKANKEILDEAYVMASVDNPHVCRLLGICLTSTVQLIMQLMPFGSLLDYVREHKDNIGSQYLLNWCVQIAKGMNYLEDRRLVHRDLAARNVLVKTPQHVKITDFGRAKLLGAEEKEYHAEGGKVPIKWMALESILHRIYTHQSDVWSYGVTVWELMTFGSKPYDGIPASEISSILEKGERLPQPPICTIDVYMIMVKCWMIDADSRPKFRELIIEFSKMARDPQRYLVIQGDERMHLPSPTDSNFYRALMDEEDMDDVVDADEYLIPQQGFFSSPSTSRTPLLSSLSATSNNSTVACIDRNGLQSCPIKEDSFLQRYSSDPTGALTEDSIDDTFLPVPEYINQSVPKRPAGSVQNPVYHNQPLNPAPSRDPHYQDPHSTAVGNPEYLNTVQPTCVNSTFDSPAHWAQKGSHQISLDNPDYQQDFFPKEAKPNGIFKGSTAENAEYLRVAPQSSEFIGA
Sequence of EGFR wildtype (WT) (P00533 25-1210): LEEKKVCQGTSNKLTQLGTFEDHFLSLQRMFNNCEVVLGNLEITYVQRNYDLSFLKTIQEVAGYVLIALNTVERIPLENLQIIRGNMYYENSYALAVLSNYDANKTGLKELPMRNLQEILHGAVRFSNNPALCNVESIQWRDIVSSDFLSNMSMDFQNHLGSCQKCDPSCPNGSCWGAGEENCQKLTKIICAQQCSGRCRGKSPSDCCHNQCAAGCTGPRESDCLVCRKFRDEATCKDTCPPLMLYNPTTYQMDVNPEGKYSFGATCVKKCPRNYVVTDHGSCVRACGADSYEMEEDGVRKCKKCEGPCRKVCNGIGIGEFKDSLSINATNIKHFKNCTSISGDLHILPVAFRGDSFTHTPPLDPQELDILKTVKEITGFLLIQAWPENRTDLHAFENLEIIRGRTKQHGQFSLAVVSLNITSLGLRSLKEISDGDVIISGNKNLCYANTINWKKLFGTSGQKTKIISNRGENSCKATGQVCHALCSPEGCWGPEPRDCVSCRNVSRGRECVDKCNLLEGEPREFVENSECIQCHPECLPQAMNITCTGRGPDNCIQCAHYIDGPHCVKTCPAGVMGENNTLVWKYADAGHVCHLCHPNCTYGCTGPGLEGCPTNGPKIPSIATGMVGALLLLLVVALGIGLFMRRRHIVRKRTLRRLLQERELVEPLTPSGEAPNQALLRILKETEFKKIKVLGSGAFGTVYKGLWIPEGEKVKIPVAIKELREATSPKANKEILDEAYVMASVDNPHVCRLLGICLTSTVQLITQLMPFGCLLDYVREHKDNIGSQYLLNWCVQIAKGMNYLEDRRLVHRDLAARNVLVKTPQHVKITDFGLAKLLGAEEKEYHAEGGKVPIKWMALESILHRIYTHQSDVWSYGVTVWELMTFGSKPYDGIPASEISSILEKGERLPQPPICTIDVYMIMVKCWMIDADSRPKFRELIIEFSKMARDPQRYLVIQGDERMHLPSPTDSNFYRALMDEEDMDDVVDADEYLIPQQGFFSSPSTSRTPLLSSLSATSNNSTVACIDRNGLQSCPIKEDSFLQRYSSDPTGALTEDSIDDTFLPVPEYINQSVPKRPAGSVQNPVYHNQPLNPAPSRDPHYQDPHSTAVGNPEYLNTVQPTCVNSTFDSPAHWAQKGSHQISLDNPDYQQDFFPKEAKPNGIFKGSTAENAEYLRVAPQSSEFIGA
Sequence of EGFR Del19/T790M/C797S (P00533 with tags, fused parts or gaps DEL746-750/T790M/C797S): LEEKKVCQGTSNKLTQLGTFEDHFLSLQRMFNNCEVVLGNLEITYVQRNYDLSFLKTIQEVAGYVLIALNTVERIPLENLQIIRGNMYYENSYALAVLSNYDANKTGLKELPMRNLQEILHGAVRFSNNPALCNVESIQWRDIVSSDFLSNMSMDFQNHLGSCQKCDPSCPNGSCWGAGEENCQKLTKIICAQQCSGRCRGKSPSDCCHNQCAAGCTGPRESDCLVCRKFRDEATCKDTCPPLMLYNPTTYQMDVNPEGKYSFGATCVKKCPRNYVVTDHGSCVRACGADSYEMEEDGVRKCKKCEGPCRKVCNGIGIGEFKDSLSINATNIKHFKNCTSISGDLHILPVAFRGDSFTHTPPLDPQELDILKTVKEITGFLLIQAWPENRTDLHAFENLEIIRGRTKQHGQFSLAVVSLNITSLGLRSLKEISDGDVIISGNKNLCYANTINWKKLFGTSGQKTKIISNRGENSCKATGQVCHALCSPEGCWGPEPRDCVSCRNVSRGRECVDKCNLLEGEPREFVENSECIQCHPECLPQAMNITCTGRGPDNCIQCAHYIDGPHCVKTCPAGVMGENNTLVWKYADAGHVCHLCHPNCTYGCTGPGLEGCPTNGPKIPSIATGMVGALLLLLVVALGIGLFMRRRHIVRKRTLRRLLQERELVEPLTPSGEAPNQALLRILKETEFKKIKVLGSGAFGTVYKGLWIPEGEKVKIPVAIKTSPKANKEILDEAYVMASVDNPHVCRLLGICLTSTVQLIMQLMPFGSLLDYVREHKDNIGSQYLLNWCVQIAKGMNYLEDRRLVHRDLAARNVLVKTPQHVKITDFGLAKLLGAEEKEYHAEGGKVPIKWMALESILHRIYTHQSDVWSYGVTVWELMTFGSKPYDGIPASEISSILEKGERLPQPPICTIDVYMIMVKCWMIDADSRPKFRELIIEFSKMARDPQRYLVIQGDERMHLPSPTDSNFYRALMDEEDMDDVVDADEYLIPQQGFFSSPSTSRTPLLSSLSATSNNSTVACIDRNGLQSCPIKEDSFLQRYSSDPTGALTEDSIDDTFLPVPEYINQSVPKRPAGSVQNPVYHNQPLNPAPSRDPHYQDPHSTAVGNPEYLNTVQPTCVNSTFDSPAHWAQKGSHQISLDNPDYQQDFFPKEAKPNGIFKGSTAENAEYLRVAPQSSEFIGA

SMILES	IC50 (EGFR Del19/T790M/C797S; [1])	IC50 (EGFR Del19/T790M/C797S; [2])	IC50 (EGFR L858R/T790M/C797S; [3])	IC50 (EGFR L858R/T790M/C797S; [4])	IC50 (EGFR Del19/C797S; [5])	IC50 (EGFR Del19/C797S; [6])	IC50 (EGFR L858R/C797S; [7])	IC50 (EGFR L858R/C797S; [8])	IC50 (EGFR wildtype (WT); [9])	IC50 (EGFR wildtype (WT); IC50 WT (nM), 100 μM ATP)	IC50 (EGFR Del19/T790M/C797S; [10])	IC50 (EGFR L858R/T790M/C797S; [11])	IC50 (EGFR Del19/C797S; [12])	IC50 (EGFR L858R/C797S; [13])	IC50 (EGFR wildtype (WT); [14])	IC50 (EGFR Del19/T790M/C797S; [15])	IC50 (EGFR L858R/T790M/C797S; [16])	IC50 (EGFR Del19/C797S; Km ATP, read-out: IC50 Del19/C797S (nM), Km ATP)	IC50 (EGFR L858R/C797S; Km ATP, read-out: IC50 L858R/C797S (nM), Km ATP)	IC50 (EGFR wildtype (WT); Km ATP, read-out: IC50 WT (nM), Km ATP)
CC1(CO)CCN(c2cc(Nc3ccnc(-c4cnn(S(=O)(=O)C5CC5)c4)n3)ncc2C#Cc2ccc(CN3CCOCC3)nc2)CC1 [Example 187, (1-(2-((2-(1-(Cyclopropylsulfonyl)-1H-pyrazol-4-yl)pyrimidin-4-yl)amino)-5-((6-(morpholinomethyl)pyridin-3-yl)ethynyl)pyridin-4-yl)-4-methylpiperidin-4-yl)methanol]	0.9 nM	0.5 nM	1.2 nM	0.8 nM	1.6 nM	0.9 nM	2 nM	8.2 nM	3.9 nM	932 nM	–	–	–	–	–	–	–	–	–	–
Cn1cc(C#Cc2cnc(Nc3ccnc(-c4cnn(S(=O)(=O)C5CC5)c4)n3)cc2N[C@H]2CC[C@@](C)(O)CC2)cn1 [Example 81, (1s,4s)-4-((2-((2-(1-(Cyclopropylsulfonyl)-1H-pyrazol-4-yl)pyrimidin-4-yl)amino)-5-((1-methyl-1H-pyrazol-4-yl)ethynyl)pyridin-4-yl)amino)-1-methylcyclohexan-1-ol]	–	0.3 nM	–	0.4 nM	–	5.8 nM	–	79.1 nM	–	> 10000 nM	0.3 nM	0.2 nM	7.7 nM	5.3 nM	61.6 nM	–	–	–	–	–
O=S(=O)(C1CC1)n1cc(-c2nccc(Nc3cc(N[C@H]4CC[C@@H](CO)CC4)c(C#CC4C[C@@H]5CC[C@@H]4O5)cn3)n2)cn1 (stereo partly shown) [Example 422, ((1s,4s)-4-((5-((7-Oxabicyclo[2.2.1]heptan-2-yl)ethynyl)-2-((2-(1-(cyclopropylsulfonyl)-1H-pyrazol-4-yl)pyrimidin-4-yl)amino)pyridin-4-yl)amino)cyclohexyl)methanol]	–	0.4 nM	–	0.5 nM	–	2.6 nM	–	59.4 nM	–	6510 nM	–	–	–	–	–	0.9 nM	0.4 nM	2.6 nM	3.2 nM	10.5 nM
O=C(N1CCC(C#Cc2cnc(Nc3ccnc(-c4cnn(S(=O)(=O)C5CC5)c4)n3)cc2NCC2CCC(O)CC2)C1)C(F)(F)F (stereo not shown) [Example 409, 1-(3-((6-((2-(1-(Cyclopropylsulfonyl)-1H-pyrazol-4-yl)pyrimidin-4-yl)amino)-4-((((1 r,4r)-4-hydroxycyclohexyl)methyl)amino)pyridin-3-yl)ethynyl)pyrrolidin-1-yl)-2,2,2-trifluoroethan-1-one]	–	4.3 nM	–	10.5 nM	–	81.3 nM	–	648 nM	–	> 10000 nM	–	–	–	–	–	–	–	–	–	–
O=C(c1ccc(C#Cc2cnc(Nc3ccnc(-c4cnn(S(=O)(=O)C5CC5)c4)n3)cc2NC[C@H]2CC[C@H](CO)CC2)cc1)N1CCC(O)CC1 [Example 443, (4-((6-((2-(1-(Cyclopropylsulfonyl)-1H-pyrazol-4-yl)pyrimidin-4-yl)amino)-4-((((1 r,4r)-4-(hydroxymethyl)cyclohexyl)methyl)amino)pyridin-3-yl)ethynyl)phenyl)(4-hydroxypiperidin-1-yl)methanone]	–	7.7 nM	–	4 nM	–	53.5 nM	–	4610 nM	–	> 10000 nM	–	–	–	–	–	4.3 nM	1.2 nM	–	–	–
CC(=O)N1CCC(n2cc(C#Cc3cnc(Nc4ccnc(-c5cnn(S(=O)(=O)C6CC6)c5)n4)cc3N3CCC(=O)CC3)cn2)CC1 [Example 108, 1-(5-((1-(1-Acetylpiperidin-4-yl)-1H-pyrazol-4-yl)ethynyl)-2-((2-(1-(cyclopropylsulfonyl)-1H-pyrazol-4-yl)pyrimidin-4-yl)amino)pyridin-4-yl)piperidin-4-one]	–	1.2 nM	–	7.8 nM	–	29.8 nM	–	154 nM	–	> 10000 nM	1.1 nM	1.6 nM	25.5 nM	8.4 nM	126 nM	–	–	–	–	–
CN(C)CCNC1CCN(c2cc(Nc3ccnc(-c4cnn(S(=O)(=O)C5CC5)c4)n3)ncc2C#Cc2cnn(C3CCOCC3)c2)CC1 [Example 138, N^1-(1-(2-((2-(1-(Cyclopropylsulfonyl)-1H-pyrazol-4-yl)pyrimidin-4-yl)amino)-5-((1-(tetrahydro-2H-pyran-4-yl)-1H-pyrazol-4-yl)ethynyl)pyridin-4-yl)piperidin-4-yl)-N^2,N^2-dimethylethane-1,2-diamine]	–	0.3 nM	–	0.4 nM	–	1.3 nM	–	8.7 nM	–	2940 nM	0.3 nM	0.1 nM	1 nM	0.9 nM	7.8 nM	–	–	–	–	–
CC1(CO)CCN(c2cc(Nc3ccnc(-c4cnn(S(=O)(=O)C5CC5)c4)n3)ncc2C#Cc2cnn(CC3CCOCC3)c2)CC1 [Example 231, (1-(2-((2-(1-(Cyclopropylsulfonyl)-1H-pyrazol-4-yl)pyrimidin-4-yl)amino)-5-((1-((tetrahydro-2H-pyran-4-yl)methyl)-1H-pyrazol-4-yl)ethynyl)pyridin-4-yl)-4-methylpiperidin-4-yl)methanol]	–	1.6 nM	–	1.5 nM	–	3 nM	–	4.6 nM	–	968 nM	1.7 nM	0.9 nM	1.3 nM	1.1 nM	6.1 nM	–	–	–	–	–

Second part, the compound after the results:

IC50 (EGFR Del19/T790M/C797S; [1])	IC50 (EGFR Del19/T790M/C797S; [2])	IC50 (EGFR L858R/T790M/C797S; [3])	IC50 (EGFR L858R/T790M/C797S; [4])	IC50 (EGFR Del19/C797S; [5])	IC50 (EGFR Del19/C797S; [6])	IC50 (EGFR L858R/C797S; [7])	IC50 (EGFR L858R/C797S; [8])	IC50 (EGFR wildtype (WT); [9])	IC50 (EGFR wildtype (WT); IC50 WT (nM), 100 μM ATP)	IC50 (EGFR Del19/T790M/C797S; [10])	IC50 (EGFR L858R/T790M/C797S; [11])	IC50 (EGFR Del19/C797S; [12])	IC50 (EGFR L858R/C797S; [13])	IC50 (EGFR wildtype (WT); [14])	IC50 (EGFR Del19/T790M/C797S; [15])	IC50 (EGFR L858R/T790M/C797S; [16])	IC50 (EGFR Del19/C797S; Km ATP, read-out: IC50 Del19/C797S (nM), Km ATP)	IC50 (EGFR L858R/C797S; Km ATP, read-out: IC50 L858R/C797S (nM), Km ATP)	IC50 (EGFR wildtype (WT); Km ATP, read-out: IC50 WT (nM), Km ATP)	SMILES
–	1.1 nM	–	2.3 nM	–	10.1 nM	–	235 nM	–	> 10000 nM	–	–	–	–	–	–	–	–	–	–	CN(C)CC1(C)CCN(c2cc(Nc3ccnc(-c4cnn(S(=O)(=O)C5CC5)c4)n3)ncc2C#CC2CCO[C@H]2C(F)(F)F)CC1 (stereo partly drawn) [Example 418, 2-(1-(Cyclopropylsulfonyl)-1H-pyrazol-4-yl)-N-(4-(4-((dimethylamino)methyl)-4-methylpiperidin-1-yl)-5-(((2R)-2-(trifluoromethyl)tetrahydrofuran-3-yl)ethynyl)pyridin-2-yl)pyrimidin-4-amine]
1.9 nM	5.2 nM	2.2 nM	6.2 nM	55.5 nM	771 nM	17.6 nM	45.5 nM	272 nM	> 10000 nM	–	–	–	–	–	–	–	–	–	–	O=S(=O)(C1CC1)n1cc(-c2nccc(Nc3cc(N4CCC(C5(O)CC5)CC4)c(C#Cc4cnn(C(F)(F)F)c4)cn3)n2)cn1 [Example 330, 1-(1-(2-((2-(1-(Cyclopropylsulfonyl)-1H-pyrazol-4-yl)pyrimidin-4-yl)amino)-5-((1-(trifluoromethyl)-1H-pyrazol-4-yl)ethynyl)pyridin-4-yl)piperidin-4-yl)cyclopropan-1-ol]
4.9 nM	2.2 nM	2.4 nM	4.2 nM	12.2 nM	10.4 nM	38.7 nM	146 nM	101 nM	> 10000 nM	–	–	–	–	–	–	–	–	–	–	CC1(CO)CCN(c2cc(Nc3ccnc(-c4cnn(S(=O)(=O)C5CC5)c4)n3)ncc2C#Cc2cnc(C(F)(F)F)s2)CC1 [Example 292, (1-(2-((2-(1-(Cyclopropylsulfonyl)-1H-pyrazol-4-yl)pyrimidin-4-yl)amino)-5-((2-(trifluoromethyl)thiazol-5-yl)ethynyl)pyridin-4-yl)-4-methylpiperidin-4-yl)methanol]
–	0.2 nM	–	0.2 nM	–	3.6 nM	–	21.6 nM	–	7820 nM	–	–	–	–	–	–	–	–	–	–	CC1(CO)CCN(c2cc(Nc3ccnc(-c4cnn(S(=O)(=O)C5CC5)c4)n3)ncc2C#CCNC(=O)C(F)(F)F)CC1 [Example 288, N-(3-(6-((2-(1-(Cyclopropylsulfonyl)-1H-pyrazol-4-yl)pyrimidin-4-yl)amino)-4-(4-(hydroxymethyl)-4-methylpiperidin-1-yl)pyridin-3-yl)prop-2-yn-1-yl)-2,2,2-trifluoroacetamide]
0.1 nM	0.1 nM	0.1 nM	0.5 nM	1.3 nM	1.7 nM	8.1 nM	42.3 nM	18.7 nM	8670 nM	–	–	–	–	–	–	–	–	–	–	C#Cc1cnc(Nc2ccnc(-c3cnn(S(=O)(=O)C4CC4)c3)n2)cc1N1CCC(C)(CO)CC1 [Example 247, (1-(2-((2-(1-(Cyclopropylsulfonyl)-1H-pyrazol-4-yl)pyrimidin-4-yl)amino)-5-ethynylpyridin-4-yl)-4-methylpiperidin-4-yl)methanol]

From patent publication US11981658B2, “Substituted aminopyridine compounds as EGFR inhibitors” (YUHAN CORPORATION, priority 2021, dated 2024)
